Laboratory results published in patent publication US20220162182A1, “KINASE INHIBITOR COMPOUNDS AND COMPOSITIONS AND METHODS OF USE” (ICAHN SCHOOL OF MEDICINE AT MOUNT SINAI, priority 2018, published 2022).
“And” between values parts separate entries of the source, which are not always exact repeats. Equal entries are not always repeated. Structures can show the parent of a compound that is named as a salt.

molecular target: T1, DYRK1/DYRK1A (Homo sapiens, UniProt Q13627); test: DYRK1/DYRK1A IC50 assay (Reaction Biology Corp.); type: biochemical; conditions: DYRK1/DYRK1A assay from Reaction Biology Corp.
T1 construct: purchased Reaction Biology Corp

Row | IC50 [nM] | SMILES
1 | 1.74 | O=c1[nH]c2ccc(-c3cncc(NCc4ccco4)c3)cc2[nH]1 [Compound 49a, 5-(5-((Furan-2-ylmethyl)amino)pyridin-3-yl)-1H-benzo[d]imidazol-2(3H)-one]
2 | 0.48 | O=c1[nH]c2ccc(-c3cncc(NCc4cccs4)c3)cc2[nH]1 [Compound 49b, 5-(5-((Thiophen-2-ylmethyl)amino)pyridin-3-yl)-1H-benzo[d]imidazol-2(3H)-one]
3 | 4.91 | O=c1[nH]c2ccc(-c3cncc(NCc4ncc[nH]4)c3)cc2[nH]1 [Compound 49c, 5-(5-(((1H-Imidazol-2-yl)methyl)amino)pyridin-3-yl)-1H-benzo[d]imidazol-2(3H)-one]
4 | 3.27 | O=c1[nH]c2ccc(-c3cncc(NCc4cc[nH]n4)c3)cc2[nH]1 [Compound 49e, 5-(5-(((1H-Pyrazol-3-yl)methyl)amino)pyridin-3-yl)-1H-benzo[d]imidazol-2(3H)-one]
5 | 4.03 | O=c1[nH]c2ccc(-c3cncc(NCc4ncco4)c3)cc2[nH]1 [Compound 49f, 5-(5-((Oxazol-2-ylmethyl)amino)pyridin-3-yl)-1H-benzo[d]imidazol-2(3H)-one]
6 | 3.67 | O=c1[nH]c2ccc(-c3cncc(CNc4ccccc4F)c3)cc2[nH]1 [Compound 52a, 5-(5-(((2-Fluorophenyl)amino)methyl)pyridin-3-yl)-1H-benzo[d]imidazol-2(3H)-one]
7 | 1.31 | O=c1[nH]c2ccc(-c3cncc(CNc4cccc(F)c4)c3)cc2[nH]1 [Compound 52b, 5-(5-(((3-Fluorophenyl)amino)methyl)pyridin-3-yl)-1H-benzo[d]imidazol-2(3H)-one]
8 | 6.11 | O=c1[nH]c2ccc(-c3cncc(CNc4ccc(F)cc4)c3)cc2[nH]1 [Compound 52c, 5-(5-(((4-Fluorophenyl)amino)methyl)pyridin-3-yl)-1H-benzo[d]imidazol-2(3H)-one]
9 | 5.05 | O=c1[nH]c2ccc(-c3cncc(CNc4ccccc4Cl)c3)cc2[nH]1 [Compound 52d, 5-(5-(((2-Chlorophenyl)amino)methyl)pyridin-3-yl)-1H-benzo[d]imidazol-2(3H)-one]
10 | 2.72 | COc1ccccc1NCc1cncc(-c2ccc3[nH]c(=O)[nH]c3c2)c1 [Compound 52g, 5-(5-(((2-Methoxyphenyl)amino)methyl)pyridin-3-yl)-1H-benzo[d]imidazol-2(3H)-one]
11 | 2.26 | COc1cccc(NCc2cncc(-c3ccc4[nH]c(=O)[nH]c4c3)c2)c1 [Compound 52h, 5-(5-(((3-Methoxyphenyl)amino)methyl)pyridin-3-yl)-1H-benzo[d]imidazol-2(3H)-one]
12 | 2.2 | COc1ccc(NCc2cncc(-c3ccc4[nH]c(=O)[nH]c4c3)c2)cc1 [Compound 52i, 5-(5-(((4-Methoxyphenyl)amino)methyl)pyridin-3-yl)-1H-benzo[d]imidazol-2(3H)-one]
13 | 1.41 | CCn1c(=O)[nH]c2ccc(-c3cncc(NCc4ccccc4)c3)cc21 [Compound 61a, 6-(5-(Benzylamino)pyridin-3-yl)-1-ethyl-1H-benzo[d]imidazol-2(3H)-one]
14 | 13.8 | CC(C)n1c(=O)[nH]c2ccc(-c3cncc(NCc4ccccc4)c3)cc21 [Compound 61b, 6-(5-(Benzylamino)pyridin-3-yl)-1-isopropyl-1H-benzo[d]imidazol-2(3H)-one]
15 | 3.25 | O=c1[nH]c2ccc(-c3cncc(NCc4ccccc4)c3)cc2n1C1CC1 [Compound 61c, 6-(5-(Benzylamino)pyridin-3-yl)-1-cyclopropyl-1H-benzo[d]imidazol-2(3H)-one]
16 | 24 | O=c1[nH]c2ccc(-c3cncc(NCc4ccccc4)c3)cc2n1C1CCCC1 [Compound 61d, 6-(5-(Benzylamino)pyridin-3-yl)-1-cyclopentyl-1H-benzo[d]imidazol-2(3H)-one]

Row | IC50 [nM] | SMILES
17 | 3.8 | O=c1[nH]c2ccc(-c3cncc(NCc4ccccc4)c3)cc2n1-c1ccccc1 [Compound 61e, 6-(5-(Benzylamino)pyridin-3-yl)-1-phenyl-1H-benzo[d]imidazol-2(3H)-one]
18 | 0.52 | O=c1[nH]c2ccc(-c3cncc(NCc4ccccc4)c3)cc2n1-c1ccccn1 [Compound 61f, 6-(5-(Benzylamino)pyridin-3-yl)-1-(pyridin-2-yl)-1H-benzo[d]imidazol-2(3H)-one]
19 | 6.47 | O=c1[nH]c2ccc(-c3cncc(NCc4ccccc4)c3)cc2n1-c1cccnc1 [Compound 61g, 6-(5-(Benzylamino)pyridin-3-yl)-1-(pyridin-3-yl)-1H-benzo[d]imidazol-2(3H)-one]
20 | 3.47 | COCCOc1cccc(-n2c(=O)[nH]c3ccc(-c4cncc(NCc5ccccc5)c4)cc32)c1 [Compound 61j, 6-(5-(Benzylamino)pyridin-3-yl)-1-(3-(2-methoxyethoxy)phenyl)-1H-benzo[d]imidazol-2(3H)-one]
21 | 38 | COCCOc1ccc(-n2c(=O)[nH]c3ccc(-c4cncc(NCc5ccccc5)c4)cc32)cc1 [Compound 61k, 6-(5-(Benzylamino)pyridin-3-yl)-1-(4-(2-methoxyethoxy)phenyl)-1H-benzo[d]imidazol-2(3H)-one]
22 | 42.8 | CC(C)(C)OC(=O)NCCOCCOc1cccc(-n2c(=O)[nH]c3ccc(-c4cncc(NCc5ccccc5)c4)cc32)c1 [Compound 61m, tert-Butyl (2-(2-(3-(6-(5-(benzylamino)pyridin-3-yl)-2-oxo-2,3-dihydro-1H-benzo[d]imidazol-1-yl)phenoxy)ethoxy)ethyl)carbamate]
23 | 7.12 | NCCOc1cccc(-n2c(=O)[nH]c3ccc(-c4cncc(NCc5ccccc5)c4)cc32)c1 [Compound 61n, 1-(3-(2-Aminoethoxy)phenyl)-6-(5-(benzylamino)pyridin-3-yl)-1H-benzo[d]imidazol-2(3H)-one hydrochloride]
24 | 3.9 | NCCOCCOc1cccc(-n2c(=O)[nH]c3ccc(-c4cncc(NCc5ccccc5)c4)cc32)c1 [Compound 61o, 1-(3-(2-(2-Aminoethoxy)ethoxy)phenyl)-6-(5-(benzylamino)pyridin-3-yl)-1H-benzo[d]imidazol-2(3H)-one hydrochloride]
25 | 99.9 | Cn1c(=O)[nH]c2ccc(-c3cc(NCc4ccccc4)c[n+]([O-])c3)cc21 [Compound 69a, 3-(Benzylamino)-5-(3-methyl-2-oxo-2,3-dihydro-1H-benzo[d]imidazol-5-yl)pyridine 1-oxide]
26 | 45.2 | O=c1[nH]c2ccc(-c3cc(NCc4ccccc4)c[n+]([O-])c3)cc2[nH]1 [Compound 69b, 3-(Benzylamino)-5-(2-oxo-2,3-dihydro-1H-benzo[d]imidazol-5-yl)pyridine 1-oxide]
27 | 0.286 | C[C@H](Nc1cncc(-c2ccc3[nH]c(=O)n(C)c3c2)c1)c1ccccc1 [Compound 69c]
28 | 2100 | Cc1ncc(NCc2ccccc2)cc1-c1ccc2[nH]c(=O)[nH]c2c1 [Compound 74a, 5-(5-(Benzylamino)-2-methylpyridin-3-yl)-1H-benzo[d]imidazol-2(3H)-one]
29 | 8580 | O=c1[nH]c2ccc(-c3ccncc3NCc3ccccc3)cc2[nH]1 [Compound 74b, 5-(3-(Benzylamino)pyridin-4-yl)-1H-benzo[d]imidazol-2(3H)-one]
30 | 1690 | O=c1[nH]c2ccc(-c3cnccc3NCc3ccccc3)cc2[nH]1 [Compound 74c, 5-(4-(Benzylamino)pyridin-3-yl)-1H-benzo[d]imidazol-2(3H)-one]
31 | 103 | CC(C)(C)OC(=O)NCCOc1cccc(-n2c(=O)[nH]c3ccc(-c4cncc(NCc5ccccc5)c4)cc32)c1 [Compound 611, tert-Butyl (2-(3-(6-(5-(benzylamino)pyridin-3-yl)-2-oxo-2,3-dihydro-1H-benzo[d]imidazol-1-yl)phenoxy)ethyl)carbamate]

molecular target: T2, DYRK1A (Homo sapiens, UniProt Q13627); test: KINOMEscan DYRK1A binding assay (DiscoverX), Kd determination; conditions: eleven serial three fold dilutions, highest concentration 60 μM, several values in a cell = repeat determinations
T2 construct: purchased DiscoverX
Procedure: Compounds were tested for DYRK1A binding activity at DiscoverX. DiscoverX uses proprietary KINOMEscan® Assay (Fabian et al., “A Small Molecule-kinase Interaction Map for Clinical Kinase Inhibitors,” Nat. Biotechnol. 23(3):329-336 (2005), which is hereby incorporated by reference in its entirety). Compounds were screened for DYRK1A activity at a single concentration of 3 μM in duplicates. Similarly, the dissociation constant Kd of the hit compounds from the initial screening was determined at DiscoverX using their proprietary KINOMEscan® Assay. Kd values are determined using eleven serial three fold dilutions with the highest concentration of 60 μM.

Row | Kd | SMILES
32 | 300 nM | O=c1[nH]c2ccc(-c3ccc(NCc4ccccc4)nc3)cc2[nH]1 [Compound 11a, 5-(6-(Benzylamino)pyridin-3-yl)-1H-benzo[d]imidazol-2(3H)-one]
33 | 580 nM and 510 nM | O=c1[nH]c2ccc(-c3ccc(NCc4ccc(F)cc4)nc3)cc2[nH]1 [Compound 11b, 5-(6-((4-Fluorobenzyl)amino)pyridin-3-yl)-1H-benzo[d]imidazol-2(3H)-one]
34 | 6000 nM | O=c1[nH]c2ccc(-c3ccc(NCc4ccc(F)cc4)cn3)cc2[nH]1 [Compound 11c, 5-(5-((4-Fluorobenzyl)amino)pyridin-2-yl)-1H-benzo[d]imidazol-2(3H)-one]
35 | 0.82 nM and 1.6 nM | Cn1c(=O)[nH]c2ccc(-c3cncc(NCc4ccccc4)c3)cc21 [Compound 12b, 6-(5-(Benzylamino)pyridin-3-yl)-1-methyl-1H-benzo[d]imidazol-2(3H)-one]
36 | 2000 nM | Cn1c(=O)[nH]c2cc(-c3cncc(NCc4ccccc4)c3)ccc21 [Compound 12c, 5-(5-(Benzylamino)pyridin-3-yl)-1-methyl-1H-benzo[d]imidazol-2(3H)-one]
37 | 2.3 nM and 2.9 nM and 1.1 nM | O=c1[nH]c2ccc(-c3cncc(NCc4ccccc4)c3)cc2[nH]1 [Compound 13a, 5-(5-(Benzylamino)pyridin-3-yl)-1H-benzo[d]imidazol-2(3H)-one]
38 | 2.9 nM and 1.8 nM | O=c1[nH]c2ccc(-c3cncc(NCc4ccc(F)cc4)c3)cc2[nH]1 [Compound 13b, 5-(5-((4-Fluorobenzyl)amino)pyridin-3-yl)-1H-benzo[d]imidazol-2(3H)-one]
39 | 140 nM | Cc1ncc(-c2ccc3[nH]c(=O)[nH]c3c2)cc1NCc1ccccc1 [Compound 13c, 5-(5-(Benzylamino)-6-methylpyridin-3-yl)-1H-benzo[d]imidazol-2(3H)-one]
40 | 240 nM | Cc1ncc(-c2ccc3[nH]c(=O)[nH]c3c2)cc1NCc1ccc(F)cc1 [Compound 13d, 5-(5-((4-Fluorobenzyl)amino)-6-methylpyridin-3-yl)-1H-benzo[d]imidazol-2(3H)-one]
